Among the data in a melting point compilation (Tetko et al.; mined from patent text by program, amines drawn as free bases though some values may be those of a salt) are melting point values, retold here.

The melting point is the temperature of the solid-liquid transition. As to `O=C1CC(c2ccco2)Cc2occ(C(F)(F)F)c21` (stereo not given), the melting point lay within 94 to 95 °C.
In the case of `O=C(O)c1ccccc1OCCN1CCC(c2cn(Cc3ccco3)c3cc(F)ccc23)CC1` it was 174 to 175 °C; in that of `CCCCn1cnnc1S`, 67 to 69 °C; in that of `Cc1noc(Cc2ccccc2Nc2c(Cl)cccc2Cl)n1`, 93.5 to 94.5 °C.
In the case of `Nc1ccc([C@@H](O)CNC[C@@H]2CCc3cc(S(=O)(=O)Nc4ccc(-n5nnn(CCCC6CCCC6)c5=O)cc4)ccc3O2)cn1` it was 99.3 to 99.7 °C; in that of `O=C1N(Cc2sc(C(F)(F)F)cc2O)c2ccccc2C12COc1cc3c(cc12)OCO3` (stereo not given), 225 to 227 °C; in that of `N#Cc1ccc(OCCCC(=O)O)cc1`, 210 °C.
`COC(=O)COCCOc1ccc(N)cc1` came in with a melting point of 51 to 52.5 °C.
In the case of `CC(=O)N1CCc2cc(Cl)ccc21` it was 115 to 116 °C; in that of `O=C(NCCCn1ccnc1)Nc1cccc(C(F)(F)F)c1`, 105 to 108 °C; in that of `COc1c(C(=O)O)n(Cc2ccccc2)c2ccccc12`, 115 to 117 °C.
In the case of `COC[C@H]1CC[C@@H](n2c(=O)[nH]c3c(C(N)=O)nc(-c4cccc(O)c4)nc32)CC1` it was 324 to 326 °C.
In the case of `CCOC(=O)c1cnn(-c2cccc(Cl)c2)c1N` it was 115 to 117 °C; in that of `CCOC(=O)CC[C@H](NC1CCC(CCC2CNc3nc(NC(=O)C(C)(C)C)nc(O)c3C2)CC1)C(=O)OCC` (stereo not given in full), 160 to 170 °C.
The compound `Cn1nnnc1SCC1=C(C(=O)OCOC(=O)C(C)(C)C)N2C(=O)C(NC(=O)Cc3csc(=O)s3)C2SC1` (stereo not given) yielded a melting point of 100 °C.
In the case of `O=C([C@H](O)CS(=O)(=O)c1ccc2cc(Cl)ccc2c1)N1CCN(N2CCCCC2=O)CC1` it was 198 °C; in that of `CCCCCCCCCCCCCCCCOCC(COCCCCCCCCCCCCCCCC)NCCC#N`, 45 to 46 °C; in that of `NC(=O)Cc1nnc(S)o1`, 160 to 163 °C.
In the case of `CCCCC[C@H]1CC[C@H](c2cnc(-c3ccc(C#N)cc3)nc2)CC1` it was 100 °C.
In the case of `CCOc1ccc(-c2ccc(N3CC(CNC(C)=O)OC3=O)cc2)ccc1=O` (stereo not given) it was 228 to 229 °C; in that of `COc1cccc(-c2ccc(-c3ccc(C(=O)O)cc3)cc2-c2ccc3c(c2)C(C)(C)CCC3(C)C)c1`, 116 to 118 °C; in that of `O=[N+]([O-])c1oc2cc3c(cc2c1-c1ccccc1)CCC3`, 161 to 164 °C.
Compound `CCCCCCCCCCCC(CCCCC(=O)N(c1ccccc1)c1ccccc1)OC` (stereo not given) registered a melting point of 51 to 52 °C.
For `COC(=O)c1ccccc1-c1ccc(CNc2nc(=O)[nH]c3ccccc23)cc1`, the melting point was 140 to 160 °C.
Consider `CC1(C)CON(Cc2ccc(N3C(=O)c4ccccc4C3=O)cc2Cl)C1=O`, for which the melting point lay in the range of 141 to 145 °C.
In the case of `CCc1nc(C(=O)O)c(Cl)c(N)c1F` it was 144 to 145 °C; in that of `CC(=O)Nc1ccn2nc(-c3ccccc3)c(-c3ccc(=O)n(C(C)C)n3)c2c1`, 221 to 222 °C; in that of `Cc1cn(C2CCN(c3c(F)c(C)c4c(=O)c(C(=O)O)cn(C5CC5)c4c3F)C2)nn1` (stereo not given), 232 to 234 °C.
Regarding `CCCc1cnc(-c2ccc(F)cc2)nc1`, the melting point was 52.7 °C.
In the case of `O=C(NC(=O)c1ccc(C(F)(F)F)cc1)Nc1ccc(Cl)cc1` it was 260 °C; in that of `CC(C)(C)c1ccnc(Oc2ccc(CCNc3ncnc4nccnc34)cc2)c1`, 156 to 157 °C.
In the case of `OC1(Cc2ccccc2F)CCCCCC1` it was 35 to 38 °C.
In turn, `Cc1ccc(NC(=O)c2cc(C#N)cc(C)n2)nc1` had a melting point of 196 °C.
In the case of `O=C(Nc1ccc2nc(CN3CCCCC3)ccc2c1)c1ccc(-c2ccccc2F)cc1` it was 163 to 164 °C; in that of `O=C(CCc1ccc(F)cc1)Cn1ccnc1`, 69 to 70 °C; in that of `Cn1cc(C2=C(c3cc[nH]c3)C(=O)NC2=O)c2ccccc21`, 240 to 241 °C.
In the case of `O=C1NC(=O)C(CCc2ccc(O)cc2)S1` (stereo not given) it was 175 to 176 °C.
`CCc1cc2c(Sc3nnc(C)s3)ncnc2s1`: the melting point is 132 to 135 °C.
In the case of `CCCCCN1CC[C@@H](c2ccccc2Cl)[C@H](CO)C1` (racemic) it was 101 to 102 °C; in that of `OC(CCN1CCC(c2ccccc2)CC1)c1ccc(Cc2ccc(Cl)cc2)cc1` (stereo not given), 98 to 101 °C; in that of `O=c1[nH]ccc2c(OCc3ccccc3)cccc12`, 165 to 168 °C.
Regarding `CCOc1ccc(C2=NN(c3ccc(C(=O)N4CCN(c5ccc(C(F)(F)F)cn5)CC4)cc3)C(=O)[C@@H]3CC=CC[C@H]23)cc1OCC`, the melting point lay within 121 to 123 °C.
`CS(=O)(=O)c1ccc(-c2cnn(-c3ccc(F)c(F)c3)c(=O)c2Oc2ccc(Cl)cc2)cc1` yielded a melting point of 192 to 194 °C.
In the case of `CCCCCCOC(=O)NCc1ccc2c(c1)C(=O)N(C1CCC(=O)NC1=O)C2=O` (stereo not given) it was 111 to 113 °C; in that of `COC(=O)Oc1c(C(=O)c2ccc(Cl)cc2Cl)c(C)nn1C`, 86 to 88 °C; in that of `C=CCC(C)(C)CNc1cc(N2CCNCC2)nc(NCC(C)(C)CC=C)n1`, 72 to 84 °C.
In the case of `ClCc1ccc2c(c1)Cc1cccnc1O2` it was 172 to 174 °C; in that of `CCCc1c(OCCCCCCC(=O)NCCCCc2cccnc2)ccc(C(C)=O)c1O`, 57 to 59 °C.
In the case of `S=C(N=c1ccn(-c2ccccc2)nc1)Nc1ccccc1` it was 171 to 173 °C; in that of `CCC1c2cc(F)ccc2-c2ccccc2N1C(=O)c1ccc(O)cc1F` (stereo not given), 109 to 111 °C.
`CCCc1c(OCCCCCc2nnn[nH]2)ccc(C(C)=O)c1O` showed a melting point of 95 to 96 °C.
As to `O=c1ccccn1C(c1ccccc1)c1ccccc1`, the melting point is 142 to 145 °C.
In the case of `Cc1cc(N)cc(C)c1Oc1ccc(Cl)c2c1CCCC2` it was 126 to 135 °C.
Compound `O=C(NCc1ccc(Cl)cc1)c1cnc2ccc(OCCO)cc2c1O` registered a melting point of 246 to 248 °C.
In the case of `CC(C)NC(=O)c1cc2[nH]cnc2c(Cl)c1NC(=O)c1cc(C(F)(F)F)nn1-c1ncccc1Cl` it was 200 to 203 °C; in that of `O=S(=O)(c1ccccc1)N1CCN(C(c2ccccc2)c2ccc(Cl)cc2)CC1` (single isomer, unassigned; (-)), 116 to 118 °C; in that of `CCc1cc(OCc2ccc(-c3ccccc3-c3nnn(C(c4ccccc4)(c4ccccc4)c4ccccc4)n3)cc2)c2c(n1)CCCN2C(=O)C(F)(F)F`, 93 to 95 °C.
In the case of `CC(=O)CN1CCc2c(c(=O)oc3cc(C)c(C)cc23)C1` it was 136 to 138 °C; in that of `CCSSCS(C)(=O)=O`, 34.6 to 36.3 °C; in that of `CCCOc1ccc(S(=O)(=O)NCc2ccncc2)cc1-c1nc2cc3nc[nH]c3cc2c(=O)[nH]1`, 189 to 190 °C.
In the case of `CNc1ccnc(C2=Cc3ccccc3CC2)c1` it was 106 to 107 °C; in that of `C#CCOc1ccc(C)cc1S(N)(=O)=O`, 169 to 170 °C; in that of `CN(c1cc(Cl)ccc1C(=O)O)S(C)(=O)=O`, 161 to 164 °C.
Consider `Nc1cc(Br)c(Br)cc1N`, for which the melting point was in the range of 189 to 190 °C.
In the case of `Cc1nsc2ccc([N+](=O)[O-])cc12` it was 124 to 125 °C.
In the case of `COc1ccc(Cc2ccc(-c3cnn4c(O)ncnc34)cc2)cc1` it was 296 to 298 °C; in that of `COC(=O)c1cccc2oc(CBr)nc12`, 110 to 113 °C; in that of `Cc1cccc(-c2[nH]c(C(C)C)nc2-c2cccc(-c3ccc(S(=O)(=O)N4CCN(C)CC4)cc3)c2)n1`, 110 to 116 °C.
In the case of `COC(=O)c1ccc(-c2ccc(OC)c(OC3CCCC3)c2)cc1` it was 128 to 131 °C.
`O=c1c(Br)c(OCc2ccccc2C(F)(F)F)ccn1Cc1ccccc1` had a melting point of 133 to 134 °C.
In the case of `CS(=O)c1ncc(Br)cn1` (stereo not given) it was 90 °C.
With `O=c1[nH]nc(Cc2ccncc2)c2c1CCCC2`, the melting point was in the range of 193 to 194 °C.
In the case of `O=c1cc(Oc2c(Cl)cccc2Cl)c2cc(OC(F)F)ccc2o1` it was 145 to 148 °C; in that of `Cc1cn(C2CC(O[Si](c3ccccc3)(c3ccccc3)C(C)(C)C)C(CI)O2)c(=O)[nH]c1=O` (stereo not given), 142 °C; in that of `O=C(Oc1ccc(F)cc1)c1cccc(F)c1`, 63.5 to 66 °C.
As for `C#CCC1(c2ccccc2)Cc2cc(OCC(=O)O)c(Cl)c(Cl)c2C1=O` (stereo not given), the melting point lay in the range of 236 to 240 °C.
In the case of `O=C1CCCc2nc3ccccc3c(NCc3ccc(F)cc3)c21` it was 158 to 159 °C.
In the case of `Cn1nc(-c2ccccc2Cl)nc1-c1ccccc1Cl` it was 82 to 85 °C.
In the case of `CC(C)=CCCC(C)CCOCC(=O)c1cc(C(C)C)c(O)c(C(C)C)c1` (stereo not given) it was 37 to 39 °C.
`COC(=O)c1ccc(C#Cc2cc(C#Cc3ccc(C(=O)OC)cc3)cc(C#Cc3ccc(C(=O)OC)cc3)c2)cc1`: the melting point stood at 177 °C.
In the case of `CCOc1cc2nc[nH]c(=O)c2cc1OCC` it was 255 to 257 °C.
In the case of `CCCCC(NC(=O)C(CS)C(C)c1ccccc1)C(=O)O` (stereo not given) it was 55 °C.
Regarding `CC1(C)Oc2ccc(OC(F)(F)F)cc2[C@@H](N2Cc3ccccc3C2=O)[C@@H]1O` (relative stereo), the melting point was 212 to 213 °C.
In the case of `CC1(C)Oc2ccc(C#N)cc2C(NC(=O)Nc2cccc(-c3ncco3)c2)C1O` (stereo not given) it was 130 to 135 °C.
Turning to `CCCOC1=C(c2ccccc2)C(CCC(=O)O)OC1=O` (stereo not given), the melting point is 123 to 125 °C.
In the case of `Cc1cccc(C#Cc2cccc(C#N)c2)n1` it was 120 to 123 °C; in that of `CN1CCN(c2ccc3c(c2)NC(=O)C(C)(c2ccc(N)cc2)C3=O)CC1` (stereo not given), 265 to 267 °C; in that of `CC1(C)COC(c2c(Cl)cc(Cl)cc2-c2ccc(F)cc2)=N1`, 93 to 95 °C.
In the case of `COCc1cc(OCc2ccccc2)c2nc(C)c(C)n2c1` it was 107 °C; in that of `CCOC(=O)NC(=O)NC(=NC(=O)Nc1ccc(Cl)cc1)OC`, 140 to 142 °C.
